Measurements: patent publication USRE40086E1, “Method for treating bacterial infection with novel 7-substituted-9-substituted amino 6-demethyl-6-deoxytetracyclines” (Wyeth Holdings Corporation, priority 1991, dated 2008)

Legend:
[1] = tested on: E. coli UBMS 89-2 (Sensitive); assay: MIC, agar dilution; format: cell-based; conditions: E. coli UBMS 89-2 Tet Sens.; Table IA; unit assumed
E. faecalis ATCC 29212 = assay: MIC, agar dilution; format: cell-based; conditions: E. faecalis ATCC 29212; Table IA; unit assumed
E. coli BAJ9003 = assay: MIC, agar dilution (Table IA); format: cell-based; conditions: unit assumed
E. coli J2175 = assay: MIC, agar dilution (Table IA); format: cell-based; conditions: unit assumed
E. coli PRP1 TetA = assay: MIC, agar dilution (Table IA); format: cell-based; conditions: unit assumed
E. faecalis 12201 = assay: MIC, agar dilution; format: cell-based; conditions: Enterococcus 12201; Table IA; unit assumed
E. coli UBMS 90-5 = assay: MIC, agar dilution (Table IA); format: cell-based; conditions: unit assumed
[2] = tested on: S. aureus UBMS 88-4 (Sensitive); assay: MIC, agar dilution; format: cell-based; conditions: S. aureus UBMS 88-4; Table IA; unit assumed
S. aureus SMITH (sens) = assay: In vivo antibacterial evaluation, acute lethal infection in mice; conditions: Oral
Excerpt: In Vivo Antibacterial Evaluation (Table VII)

[3] = tested on: X. maltophilia NEMC 87210; assay: MIC, agar dilution (Table IA); format: cell-based; conditions: unit assumed
[4] = tested on: S. aureus ATCC 29213 (Sensitive); assay: MIC, agar dilution; format: cell-based; conditions: S. aureus ATCC 29213; Table IA; unit assumed
[5] = tested on: S. aureus UBMS 90-3 (Sensitive); assay: MIC, agar dilution; format: cell-based; conditions: S. aureus UBMS 90-3; Table IA; unit assumed
[6] = tested on: S. aureus IVES 1983 (meth. resistant); assay: MIC, agar dilution; format: cell-based; conditions: S. aureus IVES 1983; Table IA; unit assumed
[7] = tested on: S. aureus Smith (Sensitive); assay: MIC, agar dilution; format: cell-based; conditions: S. aureus SMITH (MP); Table IA; unit assumed
E. coli J3272 TetD = assay: MIC, agar dilution (Table IA); format: cell-based; conditions: unit assumed
E. coli MC4100 Tet sens. = assay: MIC, agar dilution (Table IA); format: cell-based; conditions: unit assumed
S. aureus ROSE (MP) = assay: MIC, agar dilution (Table IA); format: cell-based; conditions: unit assumed
[8] = tested on: S. aureus IVES 2943 (meth. resistant); assay: MIC, agar dilution; format: cell-based; conditions: S. aureus IVES 2943; Table IA; unit assumed
E. coli J3272 TetC = assay: MIC, agar dilution (Table IA); format: cell-based; conditions: unit assumed
[9] = tested on: S. aureus UBMS 90-1 (tetM); assay: MIC, agar dilution; format: cell-based; conditions: S. aureus UBMS 90-1 TetM; Table IA; unit assumed
[10] = tested on: S. aureus UBMS 90-2 (tetM); assay: MIC, agar dilution; format: cell-based; conditions: S. aureus UBMS 90-2 TetM; Table IA; unit assumed
[11] = tested on: S. aureus UBMS 88-7 (tetK); assay: MIC, agar dilution; format: cell-based; conditions: S. aureus UBMS 88-7 TetK; Table IA; unit assumed
E. coli UBMS 88-1 (tetB) = assay: MIC, agar dilution; format: cell-based; conditions: E. coli UBMS 88-1 TetB; Table IA; unit assumed
E. coli #311 (MP) = assay: MIC, agar dilution (Table IA); format: cell-based; conditions: unit assumed
[12] = tested on: S. haemolyticus AVAH 88-3; assay: MIC, agar dilution; format: cell-based; conditions: S. hemolyticus AVHAH 88-3; Table IA; unit assumed
S. aureus NEMC 8769/89-4 = assay: MIC, agar dilution (Table IA); format: cell-based; conditions: unit assumed
E. coli UBMS 89-1 (tetM) = assay: MIC, agar dilution; format: cell-based; conditions: E. coli UBMS 89-1 TetM; Table IA; unit assumed
E. coli UBMS 90-4 (tetM) = assay: MIC, agar dilution; format: cell-based; conditions: E. coli UBMS 90-4 TetM; Table IA; unit assumed
[13] = tested on: S. aureus UBMS 88-5 (tetM); assay: MIC, agar dilution; format: cell-based; conditions: S. aureus UBMS 88-5 TetM; Table IA; unit assumed
S. mariescens FDOR 8733 = assay: MIC, agar dilution (Table IA); format: cell-based; conditions: unit assumed
E. coli ATCC 25922 = assay: MIC, agar dilution; format: cell-based; conditions: E. coli ATCC 25922; Table IA; unit assumed
E. coli MC4100 TetB = assay: MIC, agar dilution (Table IA); format: cell-based; conditions: unit assumed
[14] = tested on: Ps. acruginosa ATCC 27853; assay: MIC, agar dilution (Table IA); format: cell-based; conditions: unit assumed
E. coli J3272 Tet sens. = assay: MIC, agar dilution (Table IA); format: cell-based; conditions: unit assumed

CC(C(=O)Nc1cc(N(C)C)c2c(c1O)C(=O)C1=C(O)C3(O)C(=O)C(C(N)=O)=C(O)C(N(C)C)C3CC1C2)N1CCCC1.Cl.Cl (stereo not drawn) [AAA, [7S-(7alpha,10aalpha)]-N-[9-(Aminocarbonyl)-4,7-bis(dimethylamino)-5,5a,6,6a,7,10,10a,12-octahydro-1,8,10a,11-tetrahydroxy-10,12-dioxo-2-naphthacenyl)-alpha-methyl-1-pyrrolidineacetamide dihydrochloride]
0.25 µg/mL: Antibacterial activity (MIC) [2] | Antibacterial activity (MIC) [4] | Antibacterial activity (MIC) [5] | Antibacterial activity (MIC) [7] | Antibacterial activity (MIC) [10] | Antibacterial activity (MIC) (E. coli #311 (MP)) | Antibacterial activity (MIC) [13] | Antibacterial activity (MIC) (E. coli ATCC 25922)
2 µg/mL: Antibacterial activity (MIC) (S. aureus ROSE (MP))
0.5 µg/mL: Antibacterial activity (MIC) [1] | Antibacterial activity (MIC) (E. coli J2175) | Antibacterial activity (MIC) (E. coli PRP1 TetA) | Antibacterial activity (MIC) (E. coli UBMS 90-5) | Antibacterial activity (MIC) [3] | Antibacterial activity (MIC) [6] | Antibacterial activity (MIC) [8] | Antibacterial activity (MIC) (E. coli J3272 TetC) | Antibacterial activity (MIC) [9] | Antibacterial activity (MIC) [11] | Antibacterial activity (MIC) (E. coli UBMS 88-1 (tetB)) | Antibacterial activity (MIC) [12] | Antibacterial activity (MIC) (E. coli UBMS 90-4 (tetM)) | Antibacterial activity (MIC) (E. coli MC4100 TetB)
> 32 µg/mL: Antibacterial activity (MIC) [14]
>16 mg/kg: ED50 (S. aureus SMITH (sens))
0.06 µg/mL: Antibacterial activity (MIC) (E. coli BAJ9003)
0.12 µg/mL: Antibacterial activity (MIC) (E. faecalis ATCC 29212) | Antibacterial activity (MIC) (E. faecalis 12201) | Antibacterial activity (MIC) (E. coli J3272 TetD) | Antibacterial activity (MIC) (E. coli MC4100 Tet sens.) | Antibacterial activity (MIC) (S. aureus NEMC 8769/89-4) | Antibacterial activity (MIC) (E. coli UBMS 89-1 (tetM))
4 µg/mL: Antibacterial activity (MIC) (S. mariescens FDOR 8733)

CN(C)c1cc(NC(=O)CNCC(=O)O)c(O)c2c1CC1CC3C(N(C)C)C(O)=C(C(N)=O)C(=O)C3(O)C(O)=C1C2=O (stereo not drawn) [KKK]
> 32 µg/mL: Antibacterial activity (MIC) [1] | Antibacterial activity (MIC) (E. coli J2175) | Antibacterial activity (MIC) (E. coli PRP1 TetA) | Antibacterial activity (MIC) (E. faecalis 12201) | Antibacterial activity (MIC) (E. coli UBMS 90-5) | Antibacterial activity (MIC) [3] | Antibacterial activity (MIC) [6] | Antibacterial activity (MIC) (E. coli J3272 Tet sens.) | Antibacterial activity (MIC) (E. coli J3272 TetD) | Antibacterial activity (MIC) (S. aureus ROSE (MP)) | Antibacterial activity (MIC) [8] | Antibacterial activity (MIC) (E. coli J3272 TetC) | Antibacterial activity (MIC) [9] | Antibacterial activity (MIC) [11] | Antibacterial activity (MIC) (E. coli UBMS 88-1 (tetB)) | Antibacterial activity (MIC) (E. coli #311 (MP)) | Antibacterial activity (MIC) [12] | Antibacterial activity (MIC) (E. coli UBMS 89-1 (tetM)) | Antibacterial activity (MIC) (E. coli UBMS 90-4 (tetM)) | Antibacterial activity (MIC) [13] | Antibacterial activity (MIC) (S. mariescens FDOR 8733) | Antibacterial activity (MIC) (E. coli ATCC 25922) | Antibacterial activity (MIC) (E. coli MC4100 TetB) | Antibacterial activity (MIC) [14]
32 µg/mL: Antibacterial activity (MIC) [2] | Antibacterial activity (MIC) [4] | Antibacterial activity (MIC) (E. coli MC4100 Tet sens.) | Antibacterial activity (MIC) [10] | Antibacterial activity (MIC) (S. aureus NEMC 8769/89-4)
16 µg/mL: Antibacterial activity (MIC) (E. faecalis ATCC 29212) | Antibacterial activity (MIC) (E. coli BAJ9003) | Antibacterial activity (MIC) [5] | Antibacterial activity (MIC) [7]

CCCCCNCC(=O)Nc1cc(N(C)C)c2c(c1O)C(=O)C1=C(O)C3(O)C(=O)C(C(N)=O)=C(O)C(N(C)C)C3CC1C2.Cl.Cl (stereo not drawn) [DDD, [4S-(4alpha,12aalpha)]-4,7-Bis(dimethylamino)-1,4 4a,5,5a,6,11,12a-octahydro-3,10-12,12a-tetrahydroxy-1,11-dioxo-9-[[(pentylamino)acetyl]amino)-2-naphthacenecarboxamide dihydrochloride]
32 µg/mL: Antibacterial activity (MIC) [14]
1 µg/mL: Antibacterial activity (MIC) (E. coli PRP1 TetA) | Antibacterial activity (MIC) [4] | Antibacterial activity (MIC) [9]
8 µg/mL: Antibacterial activity (MIC) (S. mariescens FDOR 8733)
2 µg/mL: Antibacterial activity (MIC) [11]
0.25 µg/mL: Antibacterial activity (MIC) (E. faecalis ATCC 29212) | Antibacterial activity (MIC) (E. faecalis 12201) | Antibacterial activity (MIC) [7] | Antibacterial activity (MIC) (E. coli J3272 TetD) | Antibacterial activity (MIC) (S. aureus NEMC 8769/89-4) | Antibacterial activity (MIC) (E. coli UBMS 89-1 (tetM))
4 µg/mL: Antibacterial activity (MIC) [6] | Antibacterial activity (MIC) (S. aureus ROSE (MP)) | Antibacterial activity (MIC) [8]
0.12 µg/mL: Antibacterial activity (MIC) (E. coli BAJ9003) | Antibacterial activity (MIC) (E. coli MC4100 Tet sens.)
0.5 µg/mL: Antibacterial activity (MIC) [1] | Antibacterial activity (MIC) (E. coli J2175) | Antibacterial activity (MIC) (E. coli UBMS 90-5) | Antibacterial activity (MIC) [2] | Antibacterial activity (MIC) [3] | Antibacterial activity (MIC) [5] | Antibacterial activity (MIC) (E. coli J3272 TetC) | Antibacterial activity (MIC) [10] | Antibacterial activity (MIC) (E. coli UBMS 88-1 (tetB)) | Antibacterial activity (MIC) (E. coli #311 (MP)) | Antibacterial activity (MIC) [12] | Antibacterial activity (MIC) (E. coli UBMS 90-4 (tetM)) | Antibacterial activity (MIC) [13] | Antibacterial activity (MIC) (E. coli ATCC 25922) | Antibacterial activity (MIC) (E. coli MC4100 TetB)
8 to 16 mg/kg: ED50 (S. aureus SMITH (sens))

CN(C)c1cc(NC(=O)CNCc2ccccc2)c(O)c2c1CC1CC3C(N(C)C)C(O)=C(C(N)=O)C(=O)C3(O)C(O)=C1C2=O.Cl.Cl (stereo not drawn) [EEE, [4S-(4alpha,12aalpha)]-4,7-Bis(dimethylamino)-1,4,4a,5,5a,6,11,12a-octahydro-3,10,12,12a-tetrahydroxy-1,11-dioxo-9-[[[(phenylmethyl)amino]acetyl]amino]-2-naphthacenecarboxamide dihydrochloride]
32 µg/mL: Antibacterial activity (MIC) [14]
4 µg/mL: Antibacterial activity (MIC) [1] | Antibacterial activity (MIC) (E. coli J2175) | Antibacterial activity (MIC) (E. coli PRP1 TetA) | Antibacterial activity (MIC) (S. mariescens FDOR 8733) | Antibacterial activity (MIC) (E. coli MC4100 TetB)
2 µg/mL: Antibacterial activity (MIC) [6] | Antibacterial activity (MIC) [8] | Antibacterial activity (MIC) (E. coli J3272 TetC) | Antibacterial activity (MIC) [11] | Antibacterial activity (MIC) (E. coli UBMS 88-1 (tetB)) | Antibacterial activity (MIC) [12]
8 µg/mL: Antibacterial activity (MIC) (S. aureus ROSE (MP))
0.12 µg/mL: Antibacterial activity (MIC) (S. aureus NEMC 8769/89-4)
1 µg/mL: Antibacterial activity (MIC) [3]
0.5 µg/mL: Antibacterial activity (MIC) (E. coli UBMS 90-5) | Antibacterial activity (MIC) [4] | Antibacterial activity (MIC) (E. coli J3272 TetD) | Antibacterial activity (MIC) (E. coli MC4100 Tet sens.) | Antibacterial activity (MIC) [9] | Antibacterial activity (MIC) (E. coli #311 (MP)) | Antibacterial activity (MIC) (E. coli UBMS 89-1 (tetM)) | Antibacterial activity (MIC) (E. coli UBMS 90-4 (tetM)) | Antibacterial activity (MIC) [13] | Antibacterial activity (MIC) (E. coli ATCC 25922)
8 to 16 mg/kg: ED50 (S. aureus SMITH (sens))
0.25 µg/mL: Antibacterial activity (MIC) (E. faecalis ATCC 29212) | Antibacterial activity (MIC) (E. coli BAJ9003) | Antibacterial activity (MIC) (E. faecalis 12201) | Antibacterial activity (MIC) [2] | Antibacterial activity (MIC) [5] | Antibacterial activity (MIC) [7] | Antibacterial activity (MIC) [10]
